Data reported in patent US5602156A, “Method for inhibiting metalloproteinase expression” (The United States of America as represented by the …, priority 1994, dated 1997).
Entries after “also recorded” stand apart in the source; their conditions may differ.

What was measured:
[1] = test system: MMP-2; assay: Gelatin zymography of conditioned media from human cancer cell lines (gelatinase activity); type: cell-based; conditions: for reduction of activated MMP-2: 20 μM compound 1
Description: (§1) Conditioned media for zymogram and Western blot analysis were produced under serum-free conditions. Cells (2 million) were plated in 25 cm^2 flasks in serum-containing medium and cultured overnight. Serum-containingmedium was removed and the cell monolayers were washed twice with DMEM/ITS (DMEM containing insulin (5 μg/mL), transferrin (5 μg/mL), and selenium (5 ng/mL)). The resultant cells were fed with 3 mL of DMEM/ITS and additives as described in the Examples for two 24 hour periods. Conditioned media samples were collected at 24 hours and cells were refed with fresh DMEM/ITS containing the described additives for an additional 24 hours. Conditioned media samples were centrifuged to remove cells and debris then frozen at -20° C. until use. Freeze and thaw cycles of the conditioned media were limited to no more than two.
Quantitation of the effect was evaluated by laser densitometry of the resultant zymograms.
Aliquots of conditioned medium (15 μL) were electrophoresed on gelatin-containing 10% PAGE gels under nonreducing but denaturing conditions. These conditions allow the different gelatin-degrading species (MMPs) to separate by size. […] Bands of clearing, seen after Coomassie blue staining correspond to areas of gelatinase activity.
OVCAR3 conditioned media samples were concentrated 10-fold prior to zymography.
Known concentrated conditioned medium from HT1080 cells was used for identification of the gelatinase species as marked in FIG. 1A: 92 kDa, gelatinase B/MMP-9; 72 kDa, gelatinase A/MMP-2 latent form; 65 kDa intermediate and 62 kDa activated forms of MMP-2. The activated form of MMP-2 results from cleavage of the amino terminal domain.
Lane 1 corresponds to cells treated only with 0.05% DMSO as a control.
Quantitation of the zymograms in FIGS. 1A-1C were carded out using laser densitometry.
The effect of structural analogs on the gelatinase activity of A2058 cells was similarly evaluated.

[2] = test system: receptor-operated and voltage-gated calcium influx; conditions: cited from earlier work
[3] = test system: MMP-1; assay: Northern blot of MMP-1 mRNA from A2058 cells; type: cell-based, human; conditions: 2 μM
Description: (§2) This example illustrates the effect of compound 1 on MMP-1 and MMP-2 mRNA from A2058 cells using Northern blot analysis.
Total cytoplasmic RNA was purified from A2058 cells using cesium chloride density centrifugation. Cells were treated with DMSO vehicle (0.05 %) or compound 1 (2 μM) for 24 or 48 hr. Total RNA yields from treated and control cells (μg/10^6 cells) were similar. Aliquots (5 μg) of total RNA were denatured and separated on formaldehyde-1% agarose slab gels, passively transferred to GeneScreen, and crosslinked using ultraviolet light exposure. RNA was hybridized in buffer (50% deionized formamide, 5x SSC, 10 mM Tris HCl pH 7.5, 1x Denharts solution without albumin, 1.0% SDS, and 0.125 mg/mL salmon sperm DNA) containing 10^6 counts/mL of ^32 P- labeled probe of either MMP-2, MMP-1, or with GAPDH which was used as a measure of RNA load. Probes were labeled to high specific activity with ^32 P-dCTP using a random primer labeling protocol. The cDNA probes for the MMP-2, MMP-1, and GAPDH have been described. See, Brown, et al., Cancer Res. 50:6184-6191 (1990); Templeton, et at., Cancer Res. 50:5431-5437 (1990); and Fort, et al., Nucleic Acids Res. 13:1431-1441 (1985). Radiolabeled bands were quantitated using laser densitometric analysis of autoradiography bands. […]

[4] = test system: MMP-2; assay: Northern blot of MMP-2 mRNA from A2058 cells; type: cell-based, human; conditions: 2 μM; for inhibition in MMP-2 transcription: corrected for loading (GAPDH)
Description: as §2
Total cytoplasmic RNA was purified from A2058 cells using cesium chloride density centrifugation. Cells were treated with DMSO vehicle (0.05 %) or compound 1 (2 μM) for 24 or 48 hr. Total RNA yields from treated and control cells (μg/10^6 cells) were similar. Aliquots (5 μg) of total RNA were denatured and separated on formaldehyde-1% agarose slab gels, passively transferred to GeneScreen, and crosslinked using ultraviolet light exposure. RNA was hybridized in buffer (50% deionized formamide, 5x SSC, 10 mM Tris HCl pH 7.5, 1x Denharts solution without albumin, 1.0% SDS, and 0.125 mg/mL salmon sperm DNA) containing 10^6 counts/mL of ^32 P- labeled probe of either MMP-2, MMP-1, or with GAPDH which was used as a measure of RNA load. Probes were labeled to high specific activity with ^32 P-dCTP using a random primer labeling protocol. The cDNA probes for the MMP-2, MMP-1, and GAPDH have been described. See, Brown, et al., Cancer Res. 50:6184-6191 (1990); Templeton, et at., Cancer Res. 50:5431-5437 (1990); and Fort, et al., Nucleic Acids Res. 13:1431-1441 (1985). Radiolabeled bands were quantitated using laser densitometric analysis of autoradiography bands. Numeric data are presented as percent inhibition of IVase or interstitial collagenase expression corrected for loading using GAPDH.

[5] = test system: MMP-2; assay: Western immunoblot of MMP-2 species in conditioned media; type: cell-based, human
Description: as §1
This example illustrates the dose-dependent effects of compound 1 on the presence of MMP-2 and its activated species. Western immunoblots were used to detect the effect of compound 1 on the presence of MMP-2 and its activated species and for crude quantitation of MMP-2 presence.
A2058 and HT1080 conditioned media samples were concentrated 10-fold using ultrafiltration units excluding material of less than 10 or 30 kDa in molecular weight. Aliquots of 15 μL were electrophoresed on 4-20% gradient PAGE gels, electrically transferred to membranes and immunoblotted with specific polyclonal antibody to proMMP-2. This antibody, made to the MMP-2/TIMP-2 complex recognizes the latent and activated MMP-2 species and crossreacts with TIMP-2 (21 kDa).

[6] = test system: gelatinase activity; assay: Gelatin zymography of A2058 and HT1080 cells, compound 1 with or without TGF-β1 (results in words); type: cell-based, human
Description: A2058 and HT1080 cells were incubated with compound 1 (2 μM), with or without TGF-β1 (5 ng/mL) for 24 and 48 hours prior to harvest of conditioned media. Aliquots were subjected to gelatin zymography as described in Example 1. Known concentrated conditioned medium from HT1080 cells was used for identification of the gelatinase species (92 kDa, gelatinase B/MMP-9; 72 kDa, gelatinase A/MMP-2 latent form; 65 kDa intermediate and 62 kDa activated forms of MMP-2).
Lane 1 is the control resulting from treatment of the cells with 0.1% DMSO. Lanes 2 and 3 correspond to those cells which are treated with 2 μM compound 1 in the absence of TGF-β1 for 24 and 48 hours, respectively. Lane 4 corresponds to cells which have been treated with TGF-β1 in the absence of compound 1. Lane 5 corresponds to cells which have been treated with TGF-β1 for 48 hours with compound 1 being added to the incubation mixture for the final 24 hours. Lane 6 corresponds to cells which have been treated for 48 hours with both TGF-β1 and compound 1.

NC(=O)c1nnn(Cc2cc(Cl)c(C(=O)c3ccc(Cl)cc3)c(Cl)c2)c1N [Compound 1, 5-amino-l-(4-(4-chlorobenzoyl)-3,5-dichlorobenzyl)-1,2,3-triazole-4-carboxamide]
MMP-2 activity ([1]; A2058, 10 μM (FIG. 1E)): reduced MMP-2 activity
reduction of activated MMP-2 ([1]; A2058): almost complete reduction
reduction of activated MMP-2 ([1]; HT1080): 75%
shift of MMP species ([1]; HT1080 cell line): shift to activated species with subsequent decrease in total activity
reduction of activated MMP-2 ([1]; OVCAR3): almost complete reduction
reduction in activity of all MMP-2 species ([1]; all cell lines (HT1080, A2058, OVCAR3), normalized to DMSO control): greater than 80%
reduction of MMP activity ([1]; three human cancer cell lines, 0.2-20 μM): dose dependent reduction of MMP activity
inhibition of MMP-2 gelatinase activity (FIG. 1) ([1]; zymograms of FIG. 1): dose-dependent inhibition
calcium influx inhibition [2]: inhibits receptor-operated and voltage-gated calcium influx; also recorded: inhibit receptor-stimulated and voltage-gatedcalcium entry across cell membranes
expression of interstitial collagenase MMP-1 [3]: inhibits the expression of interstitial collagenase MMP-1
expression of type IV collagenase/gelatinase A MMP-2 [4]: inhibits the expression
inhibition in MMP-2 transcription ([4]; 24 hr): greater than 50%
inhibition in MMP-2 transcription ([4]; 48 hr): greater than 50%
presence of the MMP-2 species ([5]; A2058 and HT1080, FIG. 4): dose-dependent reduction of the presence of the MMP-2 species
presence of the MMP-2 species ([5]; A2058 and HT1080, FIG. 4, listed as compound 1): dose-dependent
presence of the MMP-2 species ([5]; after incubation with 20 μM compound 1): more complete reduction of all species
shift of MMP-2 species ([5]; before more complete reduction of all species): shift to the lower molecular weight activated species
reduction of gelatinase activity ([6]; A2058 and HT1080, 2 μM, 24 and 48 hr, no TGF-β1): increased from 24 to 48 hr exposure
effect on TGF-β1-increased gelatinase activity ([6]; TGF-β1 48 hr, compound 1 over the final 24 hr): little effect
effect on TGF-β1-increased gelatinase activity ([6]; TGF-β1 with compound 1 co-incubation for 48 hr): inhibited
